The source of these data is PMC11345829, “Discovery of Potent Isoquinolinequinone N-Oxides to Overcome Cancer Multidrug Resistance” (Journal of Medicinal Chemistry, 2024).

The test system of one assay is DLD1-TxR. Put plainly: SRB cell growth inhibition assay. The assay is classed as cell-based, human. As to the method:
(§1) Two distinct pairs of counterpart drug-sensitive and MDR human tumor cell lines were used, namely the non-small lung cancer (NSCLC) NCI-H460 (same cell line as in the NCI screen) and its MDR counterpart cell line NCI-H460/R and the colorectal cancer DLD1 and its MDR counterpart cell line DLD1-TxR (Table 3). The screening was performed using the SRB assay, and the GI50 for each compound was determined by interpolation on the attained concentration−response curves and compared with NCI60 screening data (SI, Figures S62−S63; Table S21).
(§2) Two pairs of drug-sensitive and multidrug-resistant (MDR) cell lines from human nonsmall cell lung cancer (NSCLC), NCI-H460 and NCI-H460/R, and colorectal cancer, DLD1 and DLD1-TxR, kindly provided by Dr M. Pešić (Belgrade, Serbia), were used to evaluate the growth inhibition potential of the compounds 1, 2, 3, 4, 5, 20, 23, 24, an 25.[76],[77] Additionally, growth inhibition assays were performed with compound 25 on two other NSCLC cell lines, A549 and NCI-H322, obtained from the American Type Culture Collection (ATCC) and the European Collection of Authenticated Cell Cultures, respectively. The A549 cell line was maintained in Dulbecco’s Modified Eagle Medium (DMEM) supplemented with 4.5 g/L Glucose with UltraGlutamine with sodium pyruvate (Lonza, Basel Stücki, Switzerland), enriched with 10% fetal bovine serum (FBS; Biowest, Nuaillé, France). The lung fibroblast MRC-5 cell line and the remaining NSCLC and colorectal cancer cell lines were cultured in Roswell Park Memorial Institute (RPMI) 1640 (with stable glutamine and 25 mM HEPES) medium (Biowest), supplemented with 10% fetal bovine serum. […] For the sulforhodamine B (SRB) and 3D cell culture assays, the media were supplemented with 5% FBS. The remaining experiments were performed with medium supplemented with 10% FBS.
(§3) Cells were seeded at a previously determined optimal cell concentration (5.0 × 10^4 cells/mL for NSCLC cells and the nontumorigenic MRC-5 cell line and 1.0 × 10^5 cells/mL for colorectal cancer cells) and incubated at 37 °C for 24 h. […] The SRB assay was performed as previously described.[78],[79] Briefly, after fixing cells with 10% (w/v) ice-cold trichloroacetic acid (Merck Life Science), the proteins were stained with 0.4% of SRB (Merck Life Science) in acetic acid (Merck Life Science). Following washing steps in acetic acid, the bound dye was solubilized with 10 mM Tris base solution (Merck Life Science). Absorbance was measured at 510 nm in a multiplate reader (Synergy Mx, Biotek Instruments Inc., Winooski, Vermont, USA) using the Gen5 software (Biotek Instruments Inc.).

Assay [1] has as its system NCI60 tumor cell line panel. Also noted: method as in PMID 31894828. The note with it: against 53 human tumor cell lines; cited from earlier work.
The subject of the next assay is NCI-ADR/RES. Also noted: method as in PMID 31894828. As to conditions: MDR cell line, high P-gp; read-out: growth inhibition (GI50) NCI/ADR-RES; cited from earlier work.
The subject of assay [2] is NCI-H460. Put plainly: NCI60 five-dose GI50 (NCI data). The class given is cell-based. As to conditions: Homo sapiens, NCI data provided for comparison, read-out: NSCLC NCI-H460 GI50 (NCI). The text has this: The concentration−response curve generated enables the determination of three criteria, GI50 (drug concentration at which 50% of cell growth is inhibited), total growth inhibition (TGI) and LC50 (drug concentration at which 50% of tumor cells are killed) which can be used to compare effectiveness against any compound tested in the screen since its inception.
S2.1 NCI Screening Assay Experimental details
NCI Screening Assay Experimental: Cancer cell growth assays (NCI60 screening) 5,6 One-dose study: Tested compounds were initially solubilised in DMSO, diluted into RPMI 1640 and 5% fetal bovine serum/L-glutamine, and added to 96-well plates containing cell lines previously cultured for 24 h. After 48 h incubation, the media were removed, and the cells were fixed and stained with sulforhodamine B to determine overall percent growth/ total protein content. Unbound dye was removed with five washes of 1% acetic acid, and the plates were allowed to air dry. The dye was then resolubilised in Tris buffer, and the colorimetric absorbance was measured (515 nm). Growth inhibition was measured relative to the response generated from proliferating cells cultured under identical conditions for 48 h. Data from one-dose experiments pertains to the percentage growth at […]
Five-dose study: Serial 5 × 10-fold dilution from an initial DMSO stock solution was performed, prior to incubation at each individual concentration (10 nM, 100 nM, 1 μM, 10 μM and 100 μM). Using seven absorbance measurements (time zero (Tz), control growth (C), and test growth in the presence of drug at the five concentration levels (Ti)), the percentage growth was calculated at each of the drug concentrations levels. Percentage growth inhibition was calculated as: [(Ti − Tz)/(C − Tz)] × 100 for concentrations for which Ti ≥ Tz, [(Ti − Tz)/Tz] × 100 for concentrations for which Ti < Tz. Three dose response parameters were calculated for each experimental agent. […]
was calculated from [(Ti − Tz)/(C − Tz)] × 100 = 50, which is the drug concentration resulting in a 50% reduction in the net protein increase (as measured by sulforhodamine B staining) in control cells during the drug incubation. The drug concentration resulting in total growth inhibition (TGI) was calculated from Ti = Tz. The LC50 (concentration of drug resulting in a 50% reduction in the measured protein at the end of the drug treatment as compared to that at the beginning) indicating a net loss of cells following treatment was calculated from [(Ti − Tz)/Tz] × 100 = −50. Values were calculated for each of these three parameters if the level of activity was reached; however, if the effect was not reached or was exceeded, the value for that parameter was expressed as greater or less than the maximum or minimum concentration tested.

In the next assay the test system is DLD1. Put plainly: SRB cell growth inhibition assay. The assay is classed as cell-based. As to conditions: Homo sapiens, DLD-1, 48 h, colorectal cancer sensitive, mean ± SEM.
Source text: as §1, with “Taking into consideration the promising results of preliminary NCI screening, nine compounds (1, 2, 3, 4, 5, 20, 23, 24, 25) were selected for further screening in two counterpart pairs of sensitive and MDR cell lines. […] Two” for “Two”
as §2, §3

Assay [3] concerns NCI-H460. Briefly: SRB cell growth inhibition assay. The assay is classed as cell-based. The note with it: Homo sapiens, 48 h, NSCLC sensitive, mean ± SEM.
Source text: as §1, with “Taking into consideration the promising results of preliminary NCI screening, nine compounds (1, 2, 3, 4, 5, 20, 23, 24, 25) were selected for further screening in two counterpart pairs of sensitive and MDR cell lines. […] Two” for “Two”
as §2, §3

For the next assay, the system named is NCI-H460/R. Briefly: SRB cell growth inhibition assay. The assay is classed as cell-based, human. On the procedure:
Two distinct pairs of counterpart drug-sensitive and MDR human tumor cell lines were used, namely the non-small lung cancer (NSCLC) NCI-H460 (same cell line as in the NCI screen) and its MDR counterpart cell line NCI-[…] and the colorectal cancer DLD1 and its MDR counterpart cell line DLD1-TxR (Table 3). The screening was performed using the SRB assay, and the GI50 for each compound was determined by interpolation on the attained concentration-response curves and compared with NCI60 screening data (SI, Figures S62-S63; Table S21). Two pairs of drug-sensitive and multidrug-resistant (MDR) cell lines from human nonsmall cell lung cancer (NSCLC), NCI-H460 and NCI-[…], and colorectal cancer, DLD1 and DLD1-TxR, kindly provided by Dr M. […] The A549 cell line was maintained in Dulbecco's Modified Eagle Medium (DMEM) supplemented with 4.5 g/L Glucose with UltraGlutamine with sodium pyruvate (Lonza, Basel Stücki, Switzerland), enriched with 10% fetal bovine serum (FBS; Biowest, Nuaillé, France). […] For the sulforhodamine B (SRB) and 3D cell culture assays, the media were supplemented with 5% FBS. The remaining experiments were performed with medium supplemented with 10% FBS. […] The SRB assay was performed as previously described.[78],[79] Briefly, after fixing cells with 10% (w/v) ice-cold trichloroacetic acid (Merck Life Science), the proteins were stained with 0.4% of SRB (Merck Life Science) in acetic acid (Merck Life Science). Following washing steps in acetic acid, the bound dye was solubilized with 10 mM Tris base solution (Merck Life Science). Absorbance was measured at 510 nm in a multiplate reader (Synergy Mx, Biotek Instruments Inc., Winooski, Vermont, USA) using the Gen5 software (Biotek Instruments Inc.).

As for `COC(=O)c1c2c(c(C)[n+]([O-])c1C)C(=O)C(NCc1ccccc1)=CC2=O` [Compound 1], the “selectivity ratio colorectal cancer” value in the assay with DLD1-TxR (GI50 sensitive DLD1 / GI50 MDR DLD1-TxR) turned out to be 1.7. The GI50 in the assay on DLD1-TxR (Homo sapiens, SRB assay, 48 h, colorectal cancer MDR, mean ± SEM) is 2970 ± 130 nM; in assay [1], 2520 nM; in the assay on NCI-ADR/RES, 2670 nM; in the assay with NCI-H460 [2] it was 2720 nM; with DLD1, 4890 ± 510 nM; in the assay with NCI-H460 [3], 3060 ± 150 nM. For the same molecule, the GI50 with NCI-H460/R (Homo sapiens, NCI-H460, SRB assay, 48 h, NSCLC MDR, mean ± SEM) came to 2290 ± 280 nM. The “selectivity ratio NSCLC” value in the assay with NCI-H460/R (GI50 sensitive NCI-H460 / GI50 MDR NCI-H460/R) was 1.3.
